Legend:
Assay in all cases: selective drug sensitivity score (sDSS, relative to normal bone marrow) (sDSS (score)); higher = more potent and effective on the cell line relative to normal bone marrow cells
Settings in all cases: 72 h
MHH-CALL-2 = system: MHH-CALL-2
CCRF-CEM = system: CCRF-CEM
KARPAS-45 = system: KARPAS-45
CCRF-HSB2 = system: CCRF-HSB2
697 = system: 697
MOLT-16 = system: MOLT-16
LC4-1 = system: LC4-1
HAL-01 = system: HAL-01
NALL-1 = system: NALL-1
P30-OHKUBO = system: P30-OHKUBO
KOPN-8 = system: KOPN-8
SUP-B15 = system: SUP-B15
TMD5 = system: TMD5
COG-LL-355h = system: COG-LL-355h
RPMI-8402 = system: RPMI-8402
P12-ICHIKAWA = system: P12-ICHIKAWA
COG-LL-332h = system: COG-LL-332h
DND-41 = system: DND-41
MHH-CALL-4 = system: MHH-CALL-4
MN-60 = system: MN-60
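Note: ALL cell lines in 384-well plates, five doses spanning 10,000-fold, each plate scaled between vehicle and 100 µmol/L benzalkonium chloride controls, sDSS an adapted area-under-curve metric.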

SMILES | selective drug sensitivity score (MHH-CALL-2) | selective drug sensitivity score (CCRF-CEM) | selective drug sensitivity score (KARPAS-45) | selective drug sensitivity score (CCRF-HSB2) | selective drug sensitivity score 697 | selective drug sensitivity score (MOLT-16) | selective drug sensitivity score (LC4-1) | selective drug sensitivity score (HAL-01) | selective drug sensitivity score (NALL-1) | selective drug sensitivity score (P30-OHKUBO) | selective drug sensitivity score (KOPN-8) | selective drug sensitivity score (SUP-B15) | selective drug sensitivity score (TMD5) | selective drug sensitivity score (COG-LL-355h) | selective drug sensitivity score (RPMI-8402) | selective drug sensitivity score (P12-ICHIKAWA) | selective drug sensitivity score (COG-LL-332h) | selective drug sensitivity score (DND-41) | selective drug sensitivity score (MHH-CALL-4) | selective drug sensitivity score (MN-60)
CO[C@H](C(=O)[C@@H](O)[C@@H](C)O)[C@@H]1Cc2cc3cc(O[C@H]4C[C@@H](O[C@H]5C[C@@H](O)[C@H](O)[C@@H](C)O5)[C@@H](O)[C@@H](C)O4)c(C)c(O)c3c(O)c2C(=O)[C@H]1O[C@H]1C[C@@H](O[C@H]2C[C@@H](O[C@H]3C[C@](C)(O)[C@H](O)[C@@H](C)O3)[C@H](O)[C@@H](C)O2)[C@H](O)[C@@H](C)O1 [Plicamycin] (top concentration 10000 nM) | -6.26 | -11.3 | -11.1 | -5.26 | -17.5 | -5.06 | -16.7 | -17.9 | -17 | -16.3 | -17.8 | -15.6 | -13.8 | -15.4 | -5.86 | -13.8 | -6.26 | 0.44 | -7.26 | 5.34
FC(F)(F)c1ccc(CNc2ccc(Cc3c[nH]c4ncc(Cl)cc34)cn2)cn1 [Pexidartinib] (top concentration 10000 nM) | -0.92 | -0.72 | -0.02 | 1.38 | 3.18 | -0.72 | 1.98 | 2.08 | -1.92 | 4.48 | 0.68 | -0.22 | -2.22 | -1.92 | 0.58 | 0.18 | -2.22 | -2.12 | -2.22 | -1.52
Cc1nc(NC(=O)N2CCC[C@H]2C(N)=O)sc1-c1ccnc(C(C)(C)C(F)(F)F)c1 [Alpelisib] (top concentration 2500 nM) | 1.68 | 0.48 | 0.38 | 1.68 | 1.08 | -0.72 | 0.98 | 0.78 | -0.82 | 2.78 | 5.38 | -0.82 | -0.82 | 5.98 | -0.02 | -0.32 | 0.18 | -0.82 | -0.22 | 1.18
CC(C)Oc1ccc(-c2nn([C@@H](C)c3oc4ccc(F)cc4c(=O)c3-c3cccc(F)c3)c3ncnc(N)c23)cc1F [TGR-1202] (top concentration 2500 nM) | -0.06 | -1.16 | -2.36 | -2.06 | 0.44 | -2.46 | -1.76 | 3.04 | 1.24 | 5.14 | 4.54 | 1.14 | -2.56 | 5.14 | -2.06 | -2.56 | -1.56 | 2.74 | -0.06 | -2.56
Nc1cc(F)ccc1NC(=O)c1ccc(CNC(=O)/C=C/c2cccnc2)cc1 [Tucidinostat] (top concentration 10000 nM) | 9.14 | 2.44 | 8.74 | 2.14 | 6.34 | 4.54 | 3.94 | -2.06 | -2.76 | 4.04 | 12.4 | 5.34 | 4.14 | 0.64 | 2.94 | 4.04 | -2.76 | 1.04 | 9.94 | 1.54
COc1cc2c(cc1-c1c(C)noc1C)ncc1[nH]c(=O)n([C@H](C)c3ccccn3)c12 [I-BET151] (top concentration 10000 nM) | 6.96 | 0.96 | 9.16 | 0.06 | 9.36 | 5.96 | 7.26 | 1.26 | -0.14 | 7.16 | 11.8 | 5.96 | -3.54 | 1.86 | 4.36 | 4.06 | -2.24 | 0.86 | 5.96 | 6.76
CN(C)C1CCN(C(=O)c2ccc(NC(=O)Nc3ccc(-c4nc(N5CCOCC5)nc(N5CCOCC5)n4)cc3)cc2)CC1 [Gedatolisib] (top concentration 1000 nM) | 3.26 | 7.26 | 3.76 | 8.86 | 11.3 | 15.9 | 3.06 | -4.54 | 1.16 | 15.2 | 10.1 | 8.36 | 0.66 | 4.16 | 3.66 | 3.16 | 4.96 | 4.46 | 3.66 | 6.26
Cn1ncc(Cl)c1-c1cc(C(=O)N[C@H](CN)Cc2ccc(F)c(F)c2)oc1Cl [Uprosertib] (top concentration 10000 nM) | 2.1 | 10.4 | 5.6 | 0.7 | 0.3 | 19.1 | -1.2 | 3.9 | -1.4 | 6.5 | 9.1 | -1.4 | 1.2 | 6.8 | 3.4 | 1.9 | 5.7 | -1.3 | 4.6 | -1.4
NC(=O)N1CCC(CC(=O)N2CCC([C@H]3c4ncc(Br)cc4CCc4cc(Cl)cc(Br)c43)CC2)CC1 [Lonafarnib] (top concentration 100000 nM) | 9.24 | 9.74 | 24.1 | 9.14 | 7.54 | 11.2 | 3.44 | 3.44 | 1.54 | 7.84 | 12.8 | 11.9 | -3.36 | 9.34 | 19.2 | 6.74 | 10.1 | 4.54 | 7.44 | 2.24
Cn1cc(-c2ccc(F)c(C(F)(F)F)c2)nc1C1CCN(c2ncnc3[nH]ncc23)CC1 (top concentration 10000 nM) | 0.26 | 0.86 | 0.06 | -0.14 | 0.76 | 0.36 | 5.56 | 1.66 | 0.46 | -0.14 | 9.76 | 8.76 | -0.14 | -0.14 | -0.14 | -0.14 | 1.56 | 1.16 | 1.86 | -0.14
CC(=O)c1cc2c(o1)C(=O)c1ccccc1C2=O [Napabucasin] (top concentration 20000 nM) | 3.72 | -1.08 | 1.22 | 0.12 | -0.88 | 0.12 | -0.38 | -0.38 | -7.38 | 0.42 | 3.72 | 1.22 | -1.28 | -0.18 | -6.08 | -1.28 | 2.32 | -0.18 | 0.12 | -2.08
CC(C)[C@H](C(=O)Nc1ccc(C(=O)NO)cc1)c1ccccc1 [AR-42] (top concentration 10000 nM) | 11 | 6.68 | 10.8 | 7.28 | 9.58 | 8.38 | 6.88 | 3.28 | 3.68 | 5.18 | 10.6 | 9.58 | 5.28 | 6.68 | 8.18 | 8.28 | 4.68 | 6.98 | 8.08 | 1.48
COc1ccc(COc2cc3oc(=O)c4cc(C(C)O)ccc4c3cc2OC)cc1 (stereo not given) [Palomid-529] (top concentration 10000 nM) | 1.06 | 0.86 | 2.76 | 1.46 | 0.06 | 4.36 | 12.6 | -0.24 | -0.04 | -0.24 | 10.3 | 5.26 | -0.24 | -0.24 | 2.86 | -0.14 | 0.46 | -0.24 | -0.24 | -0.24
CCn1c(-c2nonc2N)nc2c(C#CC(C)(C)O)ncc(OC[C@H]3CCCNC3)c21 (top concentration 10000 nM) | 3.48 | 11.9 | 6.28 | 0.88 | 8.28 | 11.6 | 1.08 | -0.62 | -0.32 | 3.88 | 7.08 | -0.32 | -1.12 | 8.98 | 6.48 | 4.68 | 9.28 | -1.12 | 2.98 | 0.08
O=C(O)c1ccc2c(c1)nc(Nc1cccc(Cl)c1)c1ccncc12 [Silmitasertib] (top concentration 10000 nM) | 6.6 | 4.1 | 4.1 | 4.4 | 3.5 | 4.8 | 3.9 | 3.8 | 2.2 | 1.8 | 11.4 | 3 | -2.2 | 6.3 | 3.3 | 0.6 | 4 | 3.6 | 2.2 | 3.7
Nc1ccn([C@@H]2O[C@H](CO)[C@@H](O)C2(F)F)c(=O)n1 [Gemcitabine] (top concentration 1000 nM) | 21.6 | 14.5 | -7.44 | 22 | 21 | 21.5 | 16.7 | 20.4 | 10.3 | 18 | 26.4 | 17.1 | -7.84 | 7.16 | 9.56 | 15.8 | 17.8 | 9.26 | 12.9 | -0.34
CN(c1ncccc1CNc1nc(Nc2ccc3c(c2)CC(=O)N3)ncc1C(F)(F)F)S(C)(=O)=O (top concentration 10000 nM) | -1.28 | -0.28 | 2.72 | 1.42 | 2.62 | 2.82 | 3.82 | -0.18 | 2.42 | 2.72 | 1.02 | 4.62 | -3.28 | 0.82 | 1.52 | -0.08 | 2.02 | 0.62 | -0.78 | -1.08
O=C(Nc1c[nH]nc1-c1nc2ccc(CN3CCOCC3)cc2[nH]1)NC1CC1 [AT9283] (top concentration 1000 nM) | 3.42 | 12.5 | 9.22 | 11.4 | 12.1 | 8.22 | 12.4 | 1.92 | 9.02 | 16 | 10.3 | 12.6 | 7.32 | 6.22 | 4.32 | 13 | 11.7 | -0.68 | 4.92 | 1.02

Source: the supplement of paper PMC8967900
